Laboratory results taken from patent US20110003000A1, “Transvaginal Delivery of Drugs” (FemmePharma Holding Company, Inc., priority 2009, published 2011).
Structures can show the parent of a compound that is named as a salt.

Key:
[1] = test system: persistent urge incontinence; settings: intravesical administration; eleven patients; cited from earlier work
[2] = test system: urgency incontinence; urinary frequency, urgency and nocturia; assay: Clinical case reports of transvaginal oxybutynin; assay type: in vivo, human; settings: person
Procedure: A person developed urgency incontinence two years after their laparoscopically assisted transvaginal hysterectomy. […] Two weeks later, they started applying oxybutynin (5 mg) into the vagina at bed time, instead of Ditropan XL. […] The patient used transvaginal oxybutynin (5 mg) at bed time for 6 months.
A person with a history of chronic pelvic pain and multiple surgical procedures, including pain mapping under conscious sedation and repair of occult bilateral inguinal hernias, developed urinary frequency, urgency and nocturia. Their urine analysis and urine culture were negative for signs of urinary tract infection. Their treatment began with transvaginal oxybutynin (5 mg) once daily, at bed time, applied into the vagina.

[3] = 5 mg into the vagina at bed time
[4] = 5 mg into the vagina twice daily
[5] = transvaginal 5 mg at bed time for 6 months

In the case of `CCN(CC)CC#CCOC(=O)C(O)(c1ccccc1)C1CCCCC1` (stereo not shown) [oxybutynin chloride], the “patients reporting improvement and becoming totally continent” value [1] is given as “Ten out of eleven” and the side effects [1] is given as “no side effects were observed”.

In the case of `Cc1ccc(O)c([C@H](CCN(C(C)C)C(C)C)c2ccccc2)c1` [DETROL, tolterodine tartrate], the “improvement of urgency incontinence” value ([2]; 2 mg orally twice a day) is reported as “slight improvement”.

With `CCN(CC)CC#CCOC(=O)C(O)(c1ccccc1)C1CCCCC1` (stereo not shown) [oxybutynin] the side effects [2, 3] was “did not experience any noticeable side effects”, the urgency symptoms [2, 3] was “improved remarkably” and the improvement of symptoms [2, 4] was “remarkable improvement”. For the same compound, the side effects [2, 4] was “no significant side effects”, the “control of symptoms of urgency incontinence throughout the treatment period” value [2, 5] was “remained effective” and the “side effects throughout the treatment period” value [2, 5] was “did not suffer from any side effects”. The “improvement of urinary frequency, urgency and nocturia” value ([2]; transvaginal 5 mg once daily at bed time) was “significant improvement”.
